# pIC50: −log10 of the molar value. Read-outs that look alike come from different tables or passages of the source.
# Key:
# Assay type in all cases: cell-based
# [1] = molecular target: T1, GluA2 (Rattus norvegicus, UniProt P19491); experiment: Whole-cell patch clamp recordings of homomeric GluA2 AMPA receptor currents and kinetics in transfected HEK293t cells; conditions: for Amplitude (peak whole-cell current in presence of compound): 16 µM compound co-applied with agonist, HEK293t, −60 mV, pH 7.4, 22 °C; for Amplitude (peak whole-cell current in presence of compound) / A/AI (amplitude ratio, glutamate alone / with compound) / t deact (weighted deactivation time constant) / t des (weighted desensitization time constant) / Amplitude, applying glutamate alone after compound: mean ± SD; for Amplitude (peak whole-cell current in presence of compound) / A/AI (amplitude ratio, glutamate alone / with compound) / Amplitude, applying glutamate alone after compound: n = 10; for A/AI (amplitude ratio, glutamate alone / with compound): 16 µM compound; for t deact (weighted deactivation time constant): 10 mM glutamate for 1 ms; for t deact (weighted deactivation time constant) / t des (weighted desensitization time constant): with compound; for t des (weighted desensitization time constant): 10 mM glutamate for 500 ms; for IC50: concentration–response fit, read-out: Log IC50 (converted); for Amplitude, applying glutamate alone after compound: glutamate alone after the compound; for pIC50: inhibition of whole-cell peak current, concentration–response, Hill fit, read-out: IC50
# T1 construct: expressed in transfected cells; host or cells: HEK293T (HEK293) cells, transient co-transfection with a separate EGFP vector
# From the text: (§1) The AMPA receptor subunits utilized in this study were of the flip isoform. The flip variant of the GluA2 subunit was originally provided by S. F. Heinemann (Salk Institute, La Jolla, CA, USA) in a pBlueScript plasmid. This plasmid was subsequently sub-cloned into a pRK vector to enable expression in HEK293 cells, which were sourced from Sigma, Germany. Additionally, the unedited version of GluA2 (R607Qjj, flip isoform) and enhanced green fluorescent protein (EGFP), both contained in pRK5 vectors, were generously supplied by P. H. Seeburg (Max Planck Institute for Medical Research, Heidelberg, Germany). Chemical-mediated ways induced transfection. GluA2 homomers were expressed into HEK293 cells by the co-transfection of 1 μg GluA2 plasmid with an equal amount of GFP expression vectors (1:1 ratio) into the cells. In addition, co-transfection was conducted for heteromeric GluA2/3 subunits at a ratio of 1:1.2 for optimum expression. For post-transfection experiments, cells were plated in 10% fetal calf serum and antibiotics in DMEM in Petri plates. These cultures were maintained under carefully controlled conditions—37 °C and 5% CO2 within a humidified incubator. The selection of cells for recordings was based on fluorescence intensity. Highly GFP-positive cells were identified and isolated for further analysis, ensuring precise targeting of transfected populations.
# (§2) Whole-cell patch clamp recordings were performed on HEK293t cells 36–48 h after transfection. Experiments were conducted at 22 °C, maintaining a holding potential of −60 mV, using an Integrated Patch Amplifier (IPA) from Sutter Instruments (Novato, CA, USA). Data acquisition was managed with SutterPatch Software v. 1.1.1 (Sutter Instruments), employing a sampling rate of 10 kHz and setting the low-pass filter at 2 kHz. […] The external solution contained 150 mM NaCl, 2.8 mM KCl, 0.5 mM MgCl2, 2 mM CaCl2, and 10 mM HEPES, adjusted to a pH of 7.4 using NaOH. The internal pipette solution was composed of 110 mM CsF, 30 mM CsCl, 4 mM NaCl, 0.5 mM CaCl2, 10 mM trypsin-EDTA solution B (0.25%), 0.05% EDTA, and 10 mM HEPES, with the pH adjusted to 7.2 using CsOH.
# (§3) A dual-barrel glass pipette (theta tube) was employed for the rapid delivery of glutamate and other solutions. The theta tube was attached to a high-speed piezoelectric solution exchange system (Automate Scientific, Berkeley, CA, USA). To assess the efficiency of solution exchange, open-tip potentials were measured by applying solutions with different ionic compositions after the patch was expelled from the pipette. The time required for a 10–90% change in the solution was generally less than […].
# (§4) Data analysis was performed with Igor Pro8.04 software (Wave Metrics, Inc., Portland, OR, USA). AMPA receptor deactivation and desensitization kinetics were measured by applying 10 mM glutamate for 1 ms and 500 ms, respectively. The currents from the AMPA receptor were fitted to a double-exponential model to quantify deactivation and desensitization time constants measured from the double-exponential fits. The weighted tau (τw) is calculated as: τw = (τf × af) + (τs × as), where τf and τs are the time constants of fast and slow exponential components and af and as represent their relative amplitudes.
# (§5) Data are presented as the mean ± standard deviation (SD). The total number of HEK293 cells engaged was n = 10. The experimental groups were compared to the wild type using a one-way analysis of variance (ANOVA). Statistical significance was assessed using p values: p < 0.05 (*) indicated significance, p < 0.01 (**) indicated high significance, and p < 0.001 (***) indicated very high significance. The value “ns” indicates non-significance. Concentration–response relationships were modeled using the Hill equation with the resulting combined plots via GraphPad Prism software (version 6.01, GraphPad Software). The data presented are the means from 3–4 experimental replicates. […]
# [2] = molecular target: T2, GluA2/3 (UniProt P19491+P42263); experiment: Whole-cell patch clamp recordings of heteromeric GluA2/3 AMPA receptor currents and kinetics in transfected HEK293t cells; conditions: for Amplitude (peak whole-cell current in presence of compound): 16 µM compound co-applied with agonist, HEK293t, −60 mV, pH 7.4, 22 °C; for Amplitude (peak whole-cell current in presence of compound) / A/AI (amplitude ratio, glutamate alone / with compound) / t deact (weighted deactivation time constant) / t des (weighted desensitization time constant) / Amplitude, applying glutamate alone after compound: mean ± SD; for Amplitude (peak whole-cell current in presence of compound) / A/AI (amplitude ratio, glutamate alone / with compound) / Amplitude, applying glutamate alone after compound: n = 10; for A/AI (amplitude ratio, glutamate alone / with compound): 16 µM compound; for t deact (weighted deactivation time constant): 10 mM glutamate for 1 ms; for t deact (weighted deactivation time constant) / t des (weighted desensitization time constant): with compound; for t des (weighted desensitization time constant): 10 mM glutamate for 500 ms; for IC50: concentration–response fit, read-out: Log IC50 (converted); for Amplitude, applying glutamate alone after compound: glutamate alone after the compound
# T2 construct: expressed in transfected cells; host or cells: HEK293T (HEK293) cells, transient co-transfection
# From the text: as §1, §2, §3, §4, §5
# [3] = molecular target: T3, GluN1a/2A (Homo sapiens, UniProt Q05586+Q12879); experiment: Selectivity: whole-cell normalized peak current of NMDA receptor GluN1a/2A; conditions: 16 µM compound, HEK293t, −60 mV
# T3 construct: expressed in transfected cells; host or cells: HEK293t cells
# Description: (§6) To evaluate the selectivity of CIC-1 and CIC-2 derivatives, their effects on GluN1a/2A and GluN1a/2B of the NMDA receptors were tested. The normalized peak current responses of the subunits alone and with CIC-1 and CIC-2 were determined (Figure 4).
# (§7) Figure 4 The inhibitory actions of Isoxazole-4-carboxamide derivatives on the whole-cell currents mediated by GluA2, GluA2/3 AMPA receptor subtypes and GluN1a/2A, […] receptor subtypes. (a) represents data for CIC-1 and CIC-2 compounds. AMPA- and NMDA-induced currents (black bars) are then compared to currents recorded in the presence of 16 µM CIC compounds (white bars). Panels (b–e) show representative traces of whole-cell current responses to a 1 ms administration of 10 mM glutamate for the subunits. The traces show normalized responses for glutamate alone (black) and glutamate in combination with CIC compounds (color-coded). The recording was performed in HEK293t cells at −60 mV, pH 7.4, and 22 °C. Data present mean ± SD from 3–4 different experiments. *** p < 0.001; and “ns” indicates not significant.
# [4] = molecular target: T4, GluN1a/2B (Homo sapiens, UniProt Q05586+Q13224); experiment: Selectivity: whole-cell normalized peak current of NMDA receptor GluN1a/2B; conditions: 16 µM compound, HEK293t, −60 mV
# T4 construct: expressed in transfected cells; host or cells: HEK293t cells
# Description: as §6, §7
# [5] = versus glutamate alone, one-way ANOVA
# T1 sequence (P19491 22-883 isoform P19491-2 limits assumed): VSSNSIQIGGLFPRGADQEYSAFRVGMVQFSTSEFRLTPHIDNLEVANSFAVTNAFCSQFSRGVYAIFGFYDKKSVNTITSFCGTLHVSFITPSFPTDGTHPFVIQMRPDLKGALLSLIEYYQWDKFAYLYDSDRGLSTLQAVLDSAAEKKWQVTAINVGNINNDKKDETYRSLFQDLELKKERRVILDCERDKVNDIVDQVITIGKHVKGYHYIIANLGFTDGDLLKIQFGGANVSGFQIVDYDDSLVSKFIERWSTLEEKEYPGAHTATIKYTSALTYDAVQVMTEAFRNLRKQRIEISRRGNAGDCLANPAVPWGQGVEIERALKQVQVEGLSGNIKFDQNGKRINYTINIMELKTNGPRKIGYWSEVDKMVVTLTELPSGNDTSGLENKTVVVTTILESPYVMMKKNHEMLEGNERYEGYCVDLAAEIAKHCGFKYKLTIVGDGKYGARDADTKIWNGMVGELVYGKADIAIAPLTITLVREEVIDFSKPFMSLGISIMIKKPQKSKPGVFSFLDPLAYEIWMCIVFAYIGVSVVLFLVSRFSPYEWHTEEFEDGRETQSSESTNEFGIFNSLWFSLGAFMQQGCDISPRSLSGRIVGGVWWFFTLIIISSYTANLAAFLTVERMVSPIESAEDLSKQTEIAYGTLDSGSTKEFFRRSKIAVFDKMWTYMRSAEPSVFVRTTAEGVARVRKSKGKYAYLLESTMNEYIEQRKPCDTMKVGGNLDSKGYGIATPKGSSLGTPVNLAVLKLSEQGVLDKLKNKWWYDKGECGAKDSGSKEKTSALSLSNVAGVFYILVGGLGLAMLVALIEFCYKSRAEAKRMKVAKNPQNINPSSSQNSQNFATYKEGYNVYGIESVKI
# T2 sequence (P19491 22-883 isoform P19491-2 limits assumed): as above
# T2 sequence (P42263 29-894 isoform P42263-2 limits assumed): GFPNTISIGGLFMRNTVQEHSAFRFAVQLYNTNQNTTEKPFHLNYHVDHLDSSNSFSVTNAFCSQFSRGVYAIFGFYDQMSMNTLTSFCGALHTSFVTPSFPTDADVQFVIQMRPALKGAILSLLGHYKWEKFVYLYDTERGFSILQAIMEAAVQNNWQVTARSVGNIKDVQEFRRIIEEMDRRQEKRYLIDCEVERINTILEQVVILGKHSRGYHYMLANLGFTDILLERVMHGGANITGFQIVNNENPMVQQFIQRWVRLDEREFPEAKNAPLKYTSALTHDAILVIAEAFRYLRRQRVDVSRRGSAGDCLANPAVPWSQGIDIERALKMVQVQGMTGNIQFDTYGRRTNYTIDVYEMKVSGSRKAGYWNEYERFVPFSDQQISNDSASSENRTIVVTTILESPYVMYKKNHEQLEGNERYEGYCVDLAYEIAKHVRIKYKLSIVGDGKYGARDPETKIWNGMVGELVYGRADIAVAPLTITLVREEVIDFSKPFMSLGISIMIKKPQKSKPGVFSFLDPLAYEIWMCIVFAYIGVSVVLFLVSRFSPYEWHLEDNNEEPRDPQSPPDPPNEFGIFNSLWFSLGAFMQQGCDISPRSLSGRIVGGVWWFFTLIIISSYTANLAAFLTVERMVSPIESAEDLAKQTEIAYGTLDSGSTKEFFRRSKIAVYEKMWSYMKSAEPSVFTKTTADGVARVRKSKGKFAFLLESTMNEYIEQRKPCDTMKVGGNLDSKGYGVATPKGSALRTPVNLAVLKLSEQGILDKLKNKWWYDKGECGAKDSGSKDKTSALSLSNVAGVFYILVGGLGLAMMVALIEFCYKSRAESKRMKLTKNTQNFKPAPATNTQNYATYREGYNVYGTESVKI
# T4 sequence (Q13224 27-1484, other chains not shown): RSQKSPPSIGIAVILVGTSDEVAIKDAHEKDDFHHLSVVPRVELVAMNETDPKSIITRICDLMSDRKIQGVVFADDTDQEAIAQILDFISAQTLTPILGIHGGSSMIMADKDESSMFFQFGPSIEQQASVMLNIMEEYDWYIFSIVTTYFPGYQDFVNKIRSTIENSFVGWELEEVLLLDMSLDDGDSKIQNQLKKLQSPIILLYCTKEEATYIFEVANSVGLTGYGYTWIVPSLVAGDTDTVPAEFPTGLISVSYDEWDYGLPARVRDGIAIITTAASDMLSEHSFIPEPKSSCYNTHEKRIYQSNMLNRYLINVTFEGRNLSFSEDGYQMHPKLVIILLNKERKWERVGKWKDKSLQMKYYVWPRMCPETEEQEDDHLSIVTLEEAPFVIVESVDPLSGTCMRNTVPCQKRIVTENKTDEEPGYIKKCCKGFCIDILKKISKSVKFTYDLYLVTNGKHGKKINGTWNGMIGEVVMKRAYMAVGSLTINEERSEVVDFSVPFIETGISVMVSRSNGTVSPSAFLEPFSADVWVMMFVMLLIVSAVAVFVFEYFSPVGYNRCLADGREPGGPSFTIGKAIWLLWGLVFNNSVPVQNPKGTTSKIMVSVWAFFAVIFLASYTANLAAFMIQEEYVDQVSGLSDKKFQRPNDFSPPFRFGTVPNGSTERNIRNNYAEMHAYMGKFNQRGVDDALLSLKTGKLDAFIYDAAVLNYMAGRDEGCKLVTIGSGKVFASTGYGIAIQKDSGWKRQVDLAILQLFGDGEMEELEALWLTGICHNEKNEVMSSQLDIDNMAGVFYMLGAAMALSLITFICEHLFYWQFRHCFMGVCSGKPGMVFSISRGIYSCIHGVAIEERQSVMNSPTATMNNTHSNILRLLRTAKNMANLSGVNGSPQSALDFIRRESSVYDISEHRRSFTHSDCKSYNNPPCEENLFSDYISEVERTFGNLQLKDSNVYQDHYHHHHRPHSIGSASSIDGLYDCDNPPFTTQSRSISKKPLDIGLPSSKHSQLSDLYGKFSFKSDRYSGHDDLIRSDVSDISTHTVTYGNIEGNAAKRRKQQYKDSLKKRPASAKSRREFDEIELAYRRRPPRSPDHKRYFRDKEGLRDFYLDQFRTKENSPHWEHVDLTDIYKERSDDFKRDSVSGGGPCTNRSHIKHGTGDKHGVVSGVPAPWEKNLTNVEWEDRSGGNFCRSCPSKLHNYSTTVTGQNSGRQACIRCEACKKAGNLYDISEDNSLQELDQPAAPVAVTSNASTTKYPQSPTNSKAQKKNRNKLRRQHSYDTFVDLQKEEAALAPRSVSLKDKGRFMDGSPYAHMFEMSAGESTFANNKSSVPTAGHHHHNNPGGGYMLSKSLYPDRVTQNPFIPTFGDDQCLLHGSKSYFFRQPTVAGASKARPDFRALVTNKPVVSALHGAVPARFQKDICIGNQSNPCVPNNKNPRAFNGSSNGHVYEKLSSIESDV
# T3 sequence (Q12879 23-1464, other chains not shown): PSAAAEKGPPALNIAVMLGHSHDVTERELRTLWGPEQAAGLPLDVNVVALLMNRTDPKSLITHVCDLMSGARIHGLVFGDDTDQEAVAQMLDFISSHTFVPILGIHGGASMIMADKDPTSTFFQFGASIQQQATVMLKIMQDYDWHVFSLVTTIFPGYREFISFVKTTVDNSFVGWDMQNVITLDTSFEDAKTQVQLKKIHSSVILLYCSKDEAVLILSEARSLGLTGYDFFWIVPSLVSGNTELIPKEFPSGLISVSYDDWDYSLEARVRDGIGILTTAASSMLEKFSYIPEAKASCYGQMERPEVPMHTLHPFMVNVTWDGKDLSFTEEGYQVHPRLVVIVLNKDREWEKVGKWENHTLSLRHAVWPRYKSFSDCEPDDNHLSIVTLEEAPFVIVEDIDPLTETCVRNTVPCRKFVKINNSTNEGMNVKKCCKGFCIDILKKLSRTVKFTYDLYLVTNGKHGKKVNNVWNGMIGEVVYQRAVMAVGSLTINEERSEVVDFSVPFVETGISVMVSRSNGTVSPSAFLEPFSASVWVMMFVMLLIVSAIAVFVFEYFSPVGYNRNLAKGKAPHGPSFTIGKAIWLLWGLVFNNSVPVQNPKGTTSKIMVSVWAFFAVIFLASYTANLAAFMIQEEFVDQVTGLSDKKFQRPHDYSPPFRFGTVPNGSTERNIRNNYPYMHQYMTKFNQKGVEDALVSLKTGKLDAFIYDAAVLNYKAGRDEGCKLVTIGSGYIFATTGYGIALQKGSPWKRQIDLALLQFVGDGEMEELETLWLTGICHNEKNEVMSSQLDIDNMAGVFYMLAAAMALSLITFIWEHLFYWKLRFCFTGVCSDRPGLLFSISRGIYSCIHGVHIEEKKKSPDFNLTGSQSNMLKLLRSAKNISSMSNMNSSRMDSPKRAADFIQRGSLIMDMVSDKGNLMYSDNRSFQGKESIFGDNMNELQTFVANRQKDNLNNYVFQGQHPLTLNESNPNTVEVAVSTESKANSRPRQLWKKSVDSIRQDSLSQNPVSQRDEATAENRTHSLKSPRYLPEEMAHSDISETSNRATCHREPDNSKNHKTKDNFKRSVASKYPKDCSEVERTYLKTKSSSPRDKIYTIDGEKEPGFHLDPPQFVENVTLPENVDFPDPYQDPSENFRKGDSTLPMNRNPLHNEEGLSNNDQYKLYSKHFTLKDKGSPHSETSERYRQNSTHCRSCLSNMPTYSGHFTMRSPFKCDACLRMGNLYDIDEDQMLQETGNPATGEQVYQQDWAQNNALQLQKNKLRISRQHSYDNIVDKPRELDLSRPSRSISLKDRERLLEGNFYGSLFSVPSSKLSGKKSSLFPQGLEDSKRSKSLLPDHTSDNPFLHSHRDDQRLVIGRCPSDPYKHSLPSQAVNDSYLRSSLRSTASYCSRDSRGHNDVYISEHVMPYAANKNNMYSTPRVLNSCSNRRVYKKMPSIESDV
SMILES,Amplitude (peak whole-cell current in presence of compound) [1] [pA],"A/AI (amplitude ratio, glutamate alone / with compound) [1]",t deact (weighted deactivation time constant) [1] [ms],t des (weighted desensitization time constant) [1] [ms],IC50 [1] [µM],"Amplitude, applying glutamate alone after compound [1] [pA]",pIC50 [1],Amplitude (peak whole-cell current in presence of compound) [2] [pA],"A/AI (amplitude ratio, glutamate alone / with compound) [2]",t deact (weighted deactivation time constant) [2] [ms],t des (weighted desensitization time constant) [2] [ms],IC50 [2] [µM],"Amplitude, applying glutamate alone after compound [2] [pA]",further results
"Cc1onc(-c2c(Cl)cccc2Cl)c1C(=O)Nc1ccccc1 [CIC-8, 3-(2,6-dichlorophenyl)-5-methyl-N-phenylisoxazole-4-carboxamide]",291±22,4.36±0.19,4.8 ± 0.2,1.9 ± 0.1,6.17,1235±151,5.21,123±20,4.30±0.20,4.9 ± 0.3,1.9 ± 0.1,6.31,513±99,"Effect on deactivation kinetics (τdeac), in words [1, 5]: statistically significant prolongation of τdeac; Effect on desensitization kinetics (τdes), in words [1, 5]: accelerated desensitization, although to a lesser degree; pIC50 ([2]; inhibition of whole-cell peak current, concentration–response, Hill fit, read-out: IC50): 5.20; Effect on deactivation kinetics (τdeac), in words [2, 5]: statistically significant prolongation of τdeac; Effect on desensitization kinetics (τdes), in words [2, 5]: accelerated desensitization, although to a lesser degree"
"CSc1ccc(NC(=O)c2c(-c3c(Cl)cccc3Cl)noc2C)cc1 [CIC-1, 3-(2,6-dichlorophenyl)-5-methyl-N-(4-(methylthio)phenyl)isoxazole-4-carboxamide]",156 ± 7,8.11±0.41,8.3 ± 0.3,0.6 ± 0.1,3.02,1231±85,5.52,73 ± 5,8.02±0.49,8.1 ± 0.4,0.7 ± 0.2,3.09,562±28,Increase of deactivation time constant (τdeac) ([1]; versus control): approximately 4 fold; Increase of deactivation time constant (τdeac) ([2]; versus control): approximately 4 fold; Effect on normalized peak current [3]: statistically not significant; Effect on normalized peak current [4]: statistically not significant

# Reference: paper PMC11932207, “Regulating AMPA Receptors with Isoxazole-4-Carboxamide Derivatives: An Electrophysiological Study” (Journal of Xenobiotics, 2025)
